Assay: Contact Assay (percentage inhibition from fluorescence intensity)
Assay type: biochemical
Experimental: The percentage inhibition was calculated using the following equation:
[formula] where, Mean(BG) is the average value of the fluorescence intensity of the background wells and Mean(PC) is the average value of the fluorescence intensity of the positive control wells.
Table 4 provides the EC50 values of various compounds disclosed herein.

EC50	SMILES
≤ 100 nM	COC(=O)c1cc(Cc2cc(C(=O)NCc3c(C)cc(N)nc3C)ccn2)cc2cc(Cl)cnc12 [Example 92, methyl 6-((4-(((6-amino-2,4-dimethylpyridin-3-yl)methyl)carbamoyl)pyridin-2-yl)methyl)-3-chloroquinoline-8-carboxylate]
≤ 100 nM	CCCc1cnc2ccc(Cc3cc(C(=O)NCc4c(C)cc(N)nc4C)ccn3)cc2c1 [Example 255, N-((6-amino-2,4-dimethylpyridin-3-yl)methyl)-2-((3-propylquinolin-6-yl)methyl)isonicotinamide]
≤ 100 nM	Cc1cc(N)nc(C)c1CNC(=O)c1ccnc(Cc2ccc3nc(C)c(Cl)cc3c2)c1 [Example 238, N-((6-amino-2,4-dimethylpyridin-3-yl)methyl)-2-((3-chloro-2-methylquinolin-6-yl)methyl)isonicotinamide]
≤ 100 nM	Cc1nc(N)ccc1CNC(=O)c1ccnc(Cc2cc(S(N)(=O)=O)c3ncc(Cl)cc3c2)c1 [Example 236]
≤ 100 nM	CCc1cnc2ccc(Cc3cc(C(=O)NCc4c(C)cc(N)nc4C)ccn3)cc2c1 [Example 286, N-((6-amino-2,4-dimethylpyridin-3-yl)methyl)-2-((3-ethylquinolin-6-yl)methyl)isonicotinamide]
100 to 1000 nM	Cc1cc(N)nc(C)c1CNC(=O)c1ccnc(Cc2cnc3[nH]c(C(F)(F)F)cc3c2)c1 [Example 152, N-((6-amino-2,4-dimethylpyridin-3-yl)methyl)-2-((2-(trifluoromethyl)-1H-pyrrolo[2,3-b]pyridin-5-yl)methyl)isonicotinamide]
≤ 100 nM	Cc1cnc2c(S(C)(=O)=O)cc(Cc3cc(C(=O)NCc4c(C)cc(N)nc4C)ccn3)cc2c1 [Example 15, N-((6-amino-2,4-dimethylpyridin-3-yl)methyl)-2-((3-methyl-8-(methylsulfonyl)quinolin-6-yl)methyl)isonicotinamide]
≤ 100 nM	Cc1nc(N)ccc1CNC(=O)c1ccnc(Cc2cc(C(C)(C)O)c3ncc(Cl)cc3c2)c1 [Example 220, N-((6-amino-2-methylpyridin-3-yl)methyl)-2-((3-chloro-8-(2-hydroxypropan-2-yl)quinolin-6-yl)methyl)isonicotinamide]
100 to 1000 nM	Cc1cc(N)nc(C)c1CNC(=O)c1ccnc(C(C)(O)c2ccc3ncc(Cl)cc3c2)c1 (centres unmarked) [Example 277, N-((6-amino-2,4-dimethylpyridin-3-yl)methyl)-2-(1-(3-chloroquinolin-6-yl)-1-hydroxyethyl)isonicotinamide]
≤ 100 nM	Cc1cc(N)nc(C)c1CNC(=O)c1ccnc(Cc2cnc3cc(F)c(Cl)cc3c2)c1 [Example 226, N-((6-amino-2,4-dimethylpyridin-3-yl)methyl)-2-((6-chloro-7-fluoroquinolin-3-yl)methyl)isonicotinamide]
≤ 100 nM	Cc1cc(N)nc(C)c1CNC(=O)c1cc(CC(N)=O)nc(Cc2ccc3ncc(Cl)cc3c2)c1 [Example 214, N-((6-amino-2,4-dimethylpyridin-3-yl)methyl)-2-(2-amino-2-oxoethyl)-6-((3-chloroquinolin-6-yl)methyl)isonicotinamide]
≤ 100 nM	Cc1cc(N)nc(C)c1CNC(=O)c1ccnc(Cc2ccc3ncc(C(C)C)cc3c2)c1 [Example 254, N-((6-amino-2,4-dimethylpyridin-3-yl)methyl)-2-((3-isopropylquinolin-6-yl)methyl)isonicotinamide]
≤ 100 nM	Cc1nc(N)ccc1CNC(=O)c1ccnc(Cc2cc(CN)c3ncc(Cl)cc3c2)c1 [Example 253, N-((6-amino-2-methylpyridin-3-yl)methyl)-2-((8-(aminomethyl)-3-chloroquinolin-6-yl)methyl)isonicotinamide]
≤ 100 nM	Cc1nc(N)ccc1CNC(=O)c1ccnc(Cc2cc(Cl)c3ncc(Cl)cc3c2)c1 [Example 101, N-((6-amino-2-methylpyridin-3-yl)methyl)-2-((3,8-dichloroquinolin-6-yl)methyl)isonicotinamide]

Continued, compound first:

SMILES	EC50
Cc1nc(N)ccc1CNC(=O)c1ccnc(Cc2cc3cc(Cl)cnc3cn2)c1 [Example 149, N-((6-amino-2-methylpyridin-3-yl)methyl)-2-((3-chloro-1,7-naphthyridin-6-yl)methyl)isonicotinamide]	≤ 100 nM
NC(=O)c1cc(Cc2cc(C(=O)NCc3n[nH]c4ccc(Cl)cc34)ccn2)cc2cc(Cl)cnc12 [Example 60, 3-chloro-6-((4-(((5-chloro-1H-indazol-3-yl)methyl)carbamoyl)pyridin-2-yl)methyl)quinoline-8-carboxamide]	100 to 1000 nM
Cc1cnc2c(S(N)(=O)=O)cc(Cc3cc(C(=O)NCc4n[nH]c5ccc(Cl)cc45)ccn3)cc2c1 [Example 288, N-((5-chloro-1H-indazol-3-yl)methyl)-2-((3-methyl-8-sulfamoylquinolin-6-yl)methyl)isonicotinamide]	100 to 1000 nM
Cc1cc(N)nc(C)c1CNC(=O)c1ccnc(Cc2cc(C(C)(C)O)c3ncc(Cl)cc3c2)c1 [Example 219, N-((6-amino-2,4-dimethylpyridin-3-yl)methyl)-2-((3-chloro-8-(2-hydroxypropan-2-yl)quinolin-6-yl)methyl)isonicotinamide]	≤ 100 nM
O=C(NCc1ccc2[nH]cc(Cl)c2c1F)c1ccnc(Cc2ccc3ncc(Cl)cc3c2)c1 [Example 40, N-(3-Chloro-4-fluoro-1H-indol-5-ylmethyl)-2-(3-chloro-quinolin-6-ylmethyl)-isonicotinamide]	100 to 1000 nM
Cc1cnc2c(C(N)=O)cc(Cc3cc(C(=O)NCc4cc5c(Cl)c[nH]c5cc4F)ccn3)cc2c1 [Example 78, 6-((4-(((3-chloro-6-fluoro-1H-indol-5-yl)methyl)carbamoyl)pyridin-2-yl)methyl)-3-methylquinoline-8-carboxamide]	≤ 100 nM
Cc1nc(N)ccc1CNC(=O)c1ccnc(Cc2ccc3ncc(C(F)(F)F)cc3c2)c1 [Example 229, N-((6-amino-2-methylpyridin-3-yl)methyl)-2-((3-(trifluoromethyl)quinolin-6-yl)methyl)isonicotinamide]	≤ 100 nM
O=C(NCc1cc2c(Cl)c[nH]c2cc1F)c1ccnc(Cc2ccc3ncc(C(F)(F)F)cc3c2)c1 [Example 230, N-((3-chloro-6-fluoro-1H-indol-5-yl)methyl)-2-((3-(trifluoromethyl)quinolin-6-yl)methyl)isonicotinamide]	100 to 1000 nM
Nc1nccc2cc(CNC(=O)c3ccnc(Cc4ccc5ncc(C(F)(F)F)cc5c4)c3)c(F)cc12 [Example 182, N-((1-amino-7-fluoroisoquinolin-6-yl)methyl)-2-((3-(trifluoromethyl)quinolin-6-yl)methyl)isonicotinamide]	100 to 1000 nM
O=C(NCc1ccc2[nH]cc(Cl)c2c1F)c1ccnc(Cc2ccc3ncc(C4CC4)cc3c2)c1 [Example 248, N-((3-chloro-4-fluoro-1H-indol-5-yl)methyl)-2-((3-cyclopropylquinolin-6-yl)methyl)isonicotinamide]	100 to 1000 nM
O=C(NCc1cnc2[nH]cc(Cl)c2c1)c1ccnc(Cc2ccc3ncc(C4CC4)cc3c2)c1 [Example 246, N-((3-chloro-1H-pyrrolo[2,3-b]pyridin-5-yl)methyl)-2-((3-cyclopropylquinolin-6-yl)methyl)isonicotinamide]	100 to 1000 nM
Cc1cnc2c(S(N)(=O)=O)cc(Cc3cc(C(=O)NCc4ccc5c(N)nccc5c4)ccn3)cc2c1 [Example 289, N-((1-aminoisoquinolin-6-yl)methyl)-2-((3-methyl-8-sulfamoylquinolin-6-yl)methyl)isonicotinamide]	≤ 100 nM
NC(=O)c1cc(Cc2cc(C(=O)NCc3cc4cc[nH]c4cc3F)ccn2)cc2cc(Cl)cnc12 [Example 66, 3-chloro-6-((4-(((6-fluoro-1H-indol-5-yl)methyl)carbamoyl)pyridin-2-yl)methyl)quinoline-8-carboxamide]	100 to 1000 nM
Cc1cnc2c(S(N)(=O)=O)cc(Cc3cc(C(=O)NCc4cnc5[nH]cc(Cl)c5c4)ccn3)cc2c1 [Example 291, N-((3-chloro-1H-pyrrolo[2,3-b]pyridin-5-yl)methyl)-2-((3-methyl-8-sulfamoylquinolin-6-yl)methyl)isonicotinamide]	≤ 100 nM
Cc1c(CNC(=O)c2ccnc(Cc3ccc4ncc(Cl)cc4c3)c2)ccc2c(N)nccc12 [Example 177, N-((1-amino-5-methylisoquinolin-6-yl)methyl)-2-((3-chloroquinolin-6-yl)methyl)isonicotinamide]	≤ 100 nM
Cc1cnc2c(S(N)(=O)=O)cc(Cc3cc(C(=O)NCc4ccc5[nH]cc(Cl)c5c4F)ccn3)cc2c1 [Example 290, N-((3-chloro-4-fluoro-1H-indol-5-yl)methyl)-2-((3-methyl-8-sulfamoylquinolin-6-yl)methyl)isonicotinamide]	100 to 1000 nM
CCc1cnc2ccc(Cc3cc(C(=O)NCc4ccc5c(N)nccc5c4)ccn3)cc2c1 [Example 283, N-((1-aminoisoquinolin-6-yl)methyl)-2-((3-ethylquinolin-6-yl)methyl)isonicotinamide]	≤ 100 nM
Cc1nc(N)ccc1CNC(=O)c1ccnc(Cc2cc(CO)c3ncc(Cl)cc3c2)c1 [Example 97, N-((6-amino-2-methylpyridin-3-yl)methyl)-2-((3-chloro-8-(hydroxymethyl)quinolin-6-yl)methyl)isonicotinamide]	≤ 100 nM
CC(C)(O)c1cc(Cc2cc(C(=O)NCc3ccc4c(N)nccc4c3)ccn2)cc2cc(Cl)cnc12 [Example 224, N-((1-aminoisoquinolin-6-yl)methyl)-2-((3-chloro-8-(2-hydroxypropan-2-yl)quinolin-6-yl)methyl)isonicotinamide]	≤ 100 nM
Cc1ccn2cnc(CNC(=O)c3ccnc(Cc4ccc5ncc(Cl)cc5c4)c3)c2c1 [Example 156, 2-((3-chloroquinolin-6-yl)methyl)-N-((7-methylimidazo [1,5-a]pyridin-1-yl)methyl)isonicotinamide]	100 to 1000 nM
O=C(NCc1cnc2[nH]cc(Cl)c2c1)c1ccnc(Cc2ccc3ncc(C(F)(F)F)cc3c2)c1 [Example 231, N-((3-chloro-1H-pyrrolo[2,3-b]pyridin-5-yl)methyl)-2-((3-(trifluoromethyl)quinolin-6-yl)methyl)isonicotinamide]	100 to 1000 nM
